Laboratory results: patent publication US20140241995A1, “MICROPATCH FOR ASSESSING CHEMICAL CONTACT ALLERGY” (priority 2011, published 2014)
“And” between values parts separate entries of the source, which are not always exact repeats. Equal entries are not always repeated. Where two headings read alike, the source gives them in different places.

Experiments:
[1] = tested on: volunteers with a positive history of contact allergy to p-phenylenediamine; assay: Occluded patch test with p-phenylenediamine in petrolatum at treatment diameters of 8, 4, 3 and 2 mm; format: in vivo, human; conditions: 0.1% or 1.0% in petrolatum, under occlusion, diameters 8, 4, 3, 2 mm; reactions at 48 h, 72 h and/or 96 h
Experimental: 15 volunteers with a positive history of contact allergy to p-phenylenediamine were recruited. Contact allergy to p-phenylenediamine was determined based on their response to a standard 48 h, 8 mm diagnostic patch test with 1% p-phenylenediamine in petrolatum. According to their known sensitivity, these volunteers were tested with either 0.1% or 1.0% p-phenylenediamine in petrolatum, under occlusion, with treatment diameters of 8, 4, 3, and 2 mm. Reactions at 48 h, 72 h and/or 96 h were recorded using the Internationally accepted dermatology grading scale of N, ?+, +, ++. The responses were transposed into numerical values (0-3 respectively) and summated. The summated scores are presented below.

[2] = tested on: patch tested subjects; conditions: PPD patch testing, cited from earlier work
[3] = tested on: subjects; conditions: cited from earlier work

| SMILES | impact of reduced patch test diameter on the reaction intensity observed [1] | rate of sensitization caused by the test ([2]; Dawe et al. 2004) | incidence of active sensitization ([2]; Devos and van der Valk 2001) [%] | % sensitised ([3]; Row 1: diameter 3 cm, area 7.1 cm^2, total 1000 μg, 142 μg/cm^2) [%] | % sensitised ([3]; Row 2: diameter 3 cm, area 7.1 cm^2, total 500 μg, 71 μg/cm^2) [%] | % sensitised ([3]; Row 3: diameter 3 cm, area 7.1 cm^2, total 250 μg, 35.4 μg/cm^2) [%] | % sensitised ([3]; Row 4: diameter 3 cm, area 7.1 cm^2, total 125 μg, 17.1 μg/cm^2) [%] | % sensitised ([3]; Row 5: diameter 3 cm, area 7.1 cm^2, total 62.5 μg, 8.8 μg/cm^2) [%] | % sensitised ([3]; Row 6: diameter 1.5 cm, area 1.8 cm^2, total 62.5 μg, 35.4 μg/cm^2) | % sensitised ([3]; Row 7: diameter 2.1 cm, area 3.5 cm^2, total 58 μg, 16.4 μg/cm^2) [%] | % sensitised ([3]; Row 8: diameter 3 cm, area 7.1 cm^2, total 116 μg, 16.4 μg/cm^2) [%] | % sensitised ([3]; Row 9: diameter 4.25 cm, area 14.2 cm^2, total 232 μg, 16.4 μg/cm^2) [%] | % sensitised ([3]; Row 10: l cm paper, area 0.8 cm^2, total 30 μg, 38 μg/cm^2) [%] | % sensitised ([3]; Row 11: 3 mm paper, area 0.08 cm^2, total 3 μg, 38 μg/cm^2) [%] |
| --- | --- | --- | --- | --- | --- | --- | --- | --- | --- | --- | --- | --- | --- | --- |
| Nc1ccc(N)cc1 [PPD, para-phenylenediamine] | no detectable impact | less than 0.2% | 1.5 | – | – | – | – | – | – | – | – | – | – | – |
| O=[N+]([O-])c1ccc(Cl)c([N+](=O)[O-])c1 [DNCB, 2,4-dinitrochlorobenzene] | – | – | – | 100 | 100 | 83 | 63 | 8 | 85% and 86% | 55 | 50 | 66 | 93 | 26 |
